These results are taken from ChEMBL document CHEMBL1201862, “PubChem BioAssay data set” (2004).

The source made the active and inactive calls.

Broadly, the IC50 is the point on the concentration scale where inhibition reaches its midpoint. For orientation: AC50 means the concentration giving half of the maximal activity seen.

One experiment deals with Protein Tat (Human immunodeficiency virus type 1 group M subtype B (isolate HXB2)(HIV-1), UniProt P04608). It is filed as functional.
Experiment [1] has as its target Mitochondrial peptide methionine sulfoxide reductase (Bos taurus, UniProt P54149). As to the kind of experiment: Absorbance-based biochemical high throughput dose response assay for activators of Methionine sulfoxide reductase A (MsrA). It is filed as functional.
For experiment [2], the target named is T1, Corticotropin-releasing factor receptor 2/Corticotropin-releasing factor-binding protein (Homo sapiens, UniProt P24387+Q13324).
T1 sequence (Q13324 whole entry): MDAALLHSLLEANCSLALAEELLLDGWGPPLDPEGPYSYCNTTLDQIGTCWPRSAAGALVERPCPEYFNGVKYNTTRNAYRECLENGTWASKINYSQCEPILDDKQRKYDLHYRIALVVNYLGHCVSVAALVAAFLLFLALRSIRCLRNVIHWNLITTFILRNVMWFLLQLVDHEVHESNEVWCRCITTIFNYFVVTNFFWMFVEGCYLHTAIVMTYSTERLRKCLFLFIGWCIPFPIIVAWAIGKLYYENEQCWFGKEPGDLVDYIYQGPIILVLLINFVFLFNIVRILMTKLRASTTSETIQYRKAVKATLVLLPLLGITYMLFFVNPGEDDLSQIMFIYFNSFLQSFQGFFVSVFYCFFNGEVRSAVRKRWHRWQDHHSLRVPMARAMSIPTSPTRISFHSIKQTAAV
T1 sequence (P24387 whole entry): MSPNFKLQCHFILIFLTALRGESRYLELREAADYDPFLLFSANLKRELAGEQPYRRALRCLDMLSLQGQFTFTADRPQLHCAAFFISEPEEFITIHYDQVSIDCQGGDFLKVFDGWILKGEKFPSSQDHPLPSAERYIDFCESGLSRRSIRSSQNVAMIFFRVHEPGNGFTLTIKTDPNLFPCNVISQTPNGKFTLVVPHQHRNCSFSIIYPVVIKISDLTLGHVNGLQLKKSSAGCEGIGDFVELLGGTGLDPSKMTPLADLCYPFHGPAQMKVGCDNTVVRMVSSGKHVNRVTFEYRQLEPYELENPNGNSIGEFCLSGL
Nature of the experiment: activators of CRF receptor 2 with binding protein – uHTS hits, confirmation (AID 602473). It counts as functional. As to conditions: read-out: EC50_Mean.

Another experiment addresses T2, Caspase-6 (Homo sapiens, UniProt P55212).
T2 sequence (P55212 whole entry): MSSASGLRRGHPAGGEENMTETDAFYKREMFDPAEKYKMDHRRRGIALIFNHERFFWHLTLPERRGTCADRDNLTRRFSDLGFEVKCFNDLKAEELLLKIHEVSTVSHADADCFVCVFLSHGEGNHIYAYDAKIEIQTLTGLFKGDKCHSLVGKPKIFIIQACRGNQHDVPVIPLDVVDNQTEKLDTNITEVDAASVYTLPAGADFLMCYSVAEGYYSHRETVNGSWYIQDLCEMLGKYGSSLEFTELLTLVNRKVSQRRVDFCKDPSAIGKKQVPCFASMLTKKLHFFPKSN
Nature of the experiment: inhibition of CASP6 peptide cleavage – biochemical, VEID-R110 fluorescence, cherry-pick, dose response (AID 720632).

Another experiment addresses T3, Caspase-7 (Homo sapiens, UniProt P55210).
T3 sequence (P55210 whole entry): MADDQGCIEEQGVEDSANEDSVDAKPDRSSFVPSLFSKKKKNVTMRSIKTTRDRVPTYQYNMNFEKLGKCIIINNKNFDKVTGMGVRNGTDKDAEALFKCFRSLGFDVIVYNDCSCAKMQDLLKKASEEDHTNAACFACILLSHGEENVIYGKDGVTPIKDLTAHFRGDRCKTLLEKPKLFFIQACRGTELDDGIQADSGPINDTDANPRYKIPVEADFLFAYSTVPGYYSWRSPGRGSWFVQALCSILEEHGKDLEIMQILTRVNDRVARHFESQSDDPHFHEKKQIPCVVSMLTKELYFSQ
Nature of the experiment: caspase-7 enzyme inhibition, selectivity check – biochemical, DEVD-R110 fluorescence, cherry-pick, selectivity assay for caspase-6 inhibitor project, dose response (AID 743295). It is filed as functional.

Experiment [3] deals with T4, Histone-lysine N-methyltransferase NSD2 (Homo sapiens, UniProt O96028).
T4 sequence (O96028 whole entry): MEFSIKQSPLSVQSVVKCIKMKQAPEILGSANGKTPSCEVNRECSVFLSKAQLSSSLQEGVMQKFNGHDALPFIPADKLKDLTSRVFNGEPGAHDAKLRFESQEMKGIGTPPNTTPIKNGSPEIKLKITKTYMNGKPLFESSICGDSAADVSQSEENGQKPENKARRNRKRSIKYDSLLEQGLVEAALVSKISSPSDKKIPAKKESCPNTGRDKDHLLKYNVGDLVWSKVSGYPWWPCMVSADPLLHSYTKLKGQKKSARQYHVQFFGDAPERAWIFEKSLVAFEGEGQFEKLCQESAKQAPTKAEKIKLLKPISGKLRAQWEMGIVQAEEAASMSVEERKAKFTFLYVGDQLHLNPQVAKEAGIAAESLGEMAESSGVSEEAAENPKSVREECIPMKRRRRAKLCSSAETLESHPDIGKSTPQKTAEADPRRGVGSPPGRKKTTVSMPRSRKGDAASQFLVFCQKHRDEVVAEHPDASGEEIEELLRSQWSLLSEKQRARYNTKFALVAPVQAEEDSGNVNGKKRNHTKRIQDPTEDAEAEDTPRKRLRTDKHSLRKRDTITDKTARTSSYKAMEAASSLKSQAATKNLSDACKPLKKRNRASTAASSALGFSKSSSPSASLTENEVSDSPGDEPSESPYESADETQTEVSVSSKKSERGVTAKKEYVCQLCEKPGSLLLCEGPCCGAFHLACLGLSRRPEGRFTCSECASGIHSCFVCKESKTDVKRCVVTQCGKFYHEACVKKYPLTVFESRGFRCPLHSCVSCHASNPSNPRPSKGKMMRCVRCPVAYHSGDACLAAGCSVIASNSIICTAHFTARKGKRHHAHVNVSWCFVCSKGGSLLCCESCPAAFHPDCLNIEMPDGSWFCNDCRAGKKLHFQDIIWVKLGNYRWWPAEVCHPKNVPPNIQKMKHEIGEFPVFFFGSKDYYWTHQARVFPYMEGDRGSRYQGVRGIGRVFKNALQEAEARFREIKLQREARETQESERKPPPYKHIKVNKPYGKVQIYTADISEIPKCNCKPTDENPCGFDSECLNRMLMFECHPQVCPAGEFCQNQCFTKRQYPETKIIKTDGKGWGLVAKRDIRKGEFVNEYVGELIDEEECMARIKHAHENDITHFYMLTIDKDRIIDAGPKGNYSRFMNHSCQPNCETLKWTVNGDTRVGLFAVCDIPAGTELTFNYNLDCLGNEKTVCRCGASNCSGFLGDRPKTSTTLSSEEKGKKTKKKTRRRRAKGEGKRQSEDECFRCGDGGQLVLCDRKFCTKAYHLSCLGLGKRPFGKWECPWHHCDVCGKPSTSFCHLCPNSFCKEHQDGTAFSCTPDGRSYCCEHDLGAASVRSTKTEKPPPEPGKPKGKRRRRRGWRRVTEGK
It is filed as biochemical.

Experiment [4] is described as follows: cytotoxicity in MITF-independent A375 cells – cell-based, CellTiter-Glo luminescence, dry powder, set 4, counter-screen for MITF inhibitor project, dose response (AID 624364).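 Also: A375 melanoma cells are MITF independent so this is a counter screen.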 As to conditions: A-375. It counts as functional. In general terms: ATP-based viability assays read luminescence as a measure of living cells.
A short description of experiment [5]: viability loss in MITF-independent A375 cells – cell-based, CellTiter-Glo luminescence, dry powder, set 2, counter-screen for MITF inhibitor project, dose response (AID 624489).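 Also: actives are compounds lowering A375 viability meaning general cytotoxicity.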 It is filed as functional. As to conditions: A-375.
The nature of experiment [6]: RKO cell viability reduction, dose response, CellTiter-Glo luminescence (AID 1117322). It counts as functional.
Experiment [7] in a line: rise of 2N DNA cells, HeLa – IC50, dose response (AID 1117349). It is filed as functional, cell-based.
Experiment [8] is described as follows: rise of 4N DNA cells, HeLa – IC50, dose response (AID 1117351). It is filed as functional, cell-based.
Experiment [9] can be described thus: CellTiter-Glo luminescence survival assay, SW480 colon tumor line, concentration-response curve, half-maximal inhibitory concentration (AID 1117338). It counts as functional.
A short description of experiment [10]: cytotoxicity toward HT-29 cells – cell-based, CellTiter-Glo luminescence, IC50, dose response (AID 1117330). It counts as functional.
Experiment [11] in a line: HCT116 cell viability decrease, GSK3B pretreatment – CellTiter-Glo, IC50, dose response (AID 1117339). It counts as functional. As to conditions: HCT-116.
The nature of experiment [12]: cytotoxicity toward Colo320 cells – cell-based, CellTiter-Glo luminescence, IC50, dose response (AID 1117334). It is filed as functional. As to conditions: COLO 320.
Experiment [13] in a line: reduced cellular PGC1a acetyl-lysine signal – cell-based, cherry-picked samples, dose response (AID 720514).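 Also: potency may reflect raised or lowered acetylation signal.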 It is filed as functional.
The nature of experiment [14]: OVCAR-3 cell viability loss – plate reader, dry powder samples, PAX8 inhibitor project, dose response (AID 743044). It counts as functional, cell-based.
A short description of experiment [15]: OVCAR8 cell viability loss – plate reader, dry powder samples, PAX8 project, dose response (AID 743197). It counts as functional, cell-based. As to conditions: OVCAR-8.
For a further experiment, the target named is Paired box protein Pax-8 (Homo sapiens, UniProt Q06710). As to the kind of experiment: PAX8 transcriptional activity inhibition in RMG-I – RMG-I cells, luciferase, cherry-pick, dose response (AID 687027).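 Also: luciferase reporter driven by Pax8 target thyroperoxidase promoter measured by SteadyGlo luminescence.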 It counts as functional, cell-based.
Paired box protein Pax-8, sequence (Q06710 whole entry): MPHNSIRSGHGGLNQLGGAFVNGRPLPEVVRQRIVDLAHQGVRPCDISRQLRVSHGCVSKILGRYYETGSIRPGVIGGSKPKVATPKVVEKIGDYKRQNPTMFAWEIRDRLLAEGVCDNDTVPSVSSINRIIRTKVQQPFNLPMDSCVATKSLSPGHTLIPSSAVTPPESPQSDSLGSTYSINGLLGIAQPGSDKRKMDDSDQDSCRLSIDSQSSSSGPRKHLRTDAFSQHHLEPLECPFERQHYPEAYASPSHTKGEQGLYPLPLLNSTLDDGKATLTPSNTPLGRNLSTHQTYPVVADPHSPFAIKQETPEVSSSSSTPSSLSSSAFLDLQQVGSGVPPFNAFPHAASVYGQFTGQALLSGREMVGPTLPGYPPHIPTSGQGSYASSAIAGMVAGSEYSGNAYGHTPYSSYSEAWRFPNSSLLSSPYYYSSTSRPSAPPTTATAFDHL
Experiment [16] can be described thus: A2780 cell killing – plate reader, dry powder samples, cytotoxicity control, dose response (AID 743046). It is filed as functional, cell-based.
The nature of experiment [17]: viability inhibitors of stage V gametocytes – luminescence, dose response (AID 1117278).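 Also: gametocytes exposed to compound for 24 hours.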 It is filed as functional, cell-based.
Experiment [18] can be described thus: viability loss in human Jurkat cells – cell-based, luminescence, cytotoxicity control for P. falciparum gametocyte viability project, dose response (AID 1117277).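 Also: potency reflects loss of cellular ATP meaning fewer viable cells.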 It counts as functional.
Experiment [19] is described as follows: IGROV1 cell killing – plate reader, dry powder samples, PAX8 inhibitor project, dose response (AID 743043). It is filed as functional, cell-based. The note with it: IGROV-1.
The nature of experiment [20]: Reduced DLD-1 viability, concentration-response, CellTiter-Glo luminescence (AID 1117352). It counts as functional.
Experiment [21] can be described thus: SNU-C1 cell viability reduction, dose response, CellTiter-Glo luminescence (AID 1117323). It is filed as functional, cell-based.
Experiment [22] is described as follows: cytotoxicity toward HCT116 cells – cell-based, CellTiter-Glo luminescence, IC50, dose response (AID 1117332). It counts as functional. The note with it: HCT-116.

Protein Tat, sequence (P04608 whole entry): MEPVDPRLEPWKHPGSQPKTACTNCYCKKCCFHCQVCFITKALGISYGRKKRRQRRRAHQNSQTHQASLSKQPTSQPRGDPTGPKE
Mitochondrial peptide methionine sulfoxide reductase, sequence (P54149 whole entry): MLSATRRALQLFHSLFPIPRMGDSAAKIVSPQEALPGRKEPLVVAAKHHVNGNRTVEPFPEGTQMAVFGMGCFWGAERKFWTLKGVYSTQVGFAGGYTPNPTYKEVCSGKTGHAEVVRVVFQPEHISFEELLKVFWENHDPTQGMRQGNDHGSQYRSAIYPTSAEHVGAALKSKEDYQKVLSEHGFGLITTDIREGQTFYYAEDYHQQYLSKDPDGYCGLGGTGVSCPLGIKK

On to `Cc1ccc(CCC(=O)Nc2ccc(S(N)(=O)=O)cc2)o1`, for which the IC50 at Protein Tat was > 100 µM (active).
As for `COCCn1c2nc(=O)n(-c3ccccc3)c(=O)c-2nc2ccccc21`, the EC50 was 95.4 µM (inactive) in experiment [1] and 5.14 µM (active) in experiment [2]. The half-maximal activity concentration (AC50) on Caspase-6 is 3.93 µM (active); at Caspase-7, 8.13 µM (active); in experiment [3] it was 12.7 µM (active).
With `C[C@@H](NC1=C(Nc2ccccc2)C(=O)c2ccccc2C1=O)c1ccccc1`, the values for the AC50 in experiment [4] and in experiment [5] were > 70 µM (inactive) and 48.5 µM (active), respectively.
For the compound `COc1ccc2cc1Oc1ccc(cc1)C[C@H]1c3c(cc4c(c3Oc3cc5c(cc3OC)CCN(C)[C@@H]5C2)OCO4)CCN1C` [CEPHARANTHINE], the IC50 in experiment [6] was 3.79 µM (active); in experiment [7], > 10 µM (inactive); in [8] it was > 10 µM (inactive); in experiment [9], 0.308 µM (active); in [10], 1.36 µM (active); in [11], 3.57 µM (active). Moreover, the half-maximal inhibitory concentration (IC50) in experiment [12] is 1.43 µM (active).
For `O=C1C=CCCN1C(=O)/C=C/c1cccc(C(F)(F)F)c1`, the AC50 in [13] was 1.77 µM (active).
`C[C@H]1CN([C@@H](C)CO)S(=O)(=O)c2ccc(C#Cc3ccccc3F)cc2O[C@@H]1CN(C)CC1CCOCC1`: the AC50 was 34.1 µM (active) in experiment [14], 28.9 µM (active) in experiment [15], 10.4 µM (active) on Paired box protein Pax-8 and < 0.26 µM (active) in [16].
Regarding `CCCN(CCC)C(=O)Cn1c(=O)n(CCC(=O)NCCc2ccccc2)c(=O)c2ccccc21`, the IC50 was > 109 µM (inactive) in experiment [17] and > 83.3 µM (inactive) in experiment [18].
For the compound `C[C@@H]1CCCCO[C@H](CN(C)Cc2ccc(C(F)(F)F)cc2)[C@H](C)CN([C@@H](C)CO)C(=O)c2cc(NS(=O)(=O)c3ccc(F)cc3)ccc2O1`, the AC50 in experiment [19] is 37 µM (active); in experiment [14] it was 24 µM (active); in experiment [15] it was 36.9 µM (active); at Paired box protein Pax-8, 5.17 µM (active); in [16] it was 55.3 µM (active).
As for `[O-][n+]1ccc(C2CC2)cc1`, the IC50 was > 109 µM (inactive) in [17] and > 83.4 µM (inactive) in experiment [18].
For the compound `CCCCOC(=O)c1ccc(N)cc1` [BUTAMBEN], the IC50 is 0.137 µM (active) in experiment [6]; > 10 µM (inactive) in experiment [7]; 4.56 µM (active) in experiment [20]; > 10 µM (inactive) in experiment [8]; 0.586 µM (active) in experiment [9]; > 20 µM (inactive) in [10]. Besides, the IC50 in experiment [21], in experiment [22] and in [12] was > 20 µM (inactive) each time.
